PubChem BioAssay AID1845211 (Molecular Pharmacology Branch, DTP, NCI, 2023)

Tested on: NCI-H322M multicellular tumor spheroids, viability (% test/control)
Assay: Anticancer human tumor NCI-H322M cell line growth inhibition;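 for viability, T/C: spheroids exposed to compound for seven days before readout; 100% = DMSO vehicle control wells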
Conditions: for IC50: curve of first compound; for viability, T/C: stronger effect = lower value
Procedure, shortened: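 Complex tumor spheroids combined malignant cells with endothelial cells and mesenchymal stem cells. DNA-damaging drugs and DNA repair inhibitors were tested alone and in combination, at half-log dilutions down from clinical Cmax (top 10 microM if Cmax unknown), 0.25% DMSO final.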

[1] = second compound 0.003 µM, first compound 0.00949 µM
[2] = second compound 0.003 µM, first compound 0.03 µM
[3] = second compound 0.003 µM, first compound 0.0949 µM
[4] = second compound 0.003 µM, first compound 0.3 µM
[5] = second compound 0.003 µM, first compound 0.949 µM
[6] = second compound 0.003 µM, first compound 3 µM
[7] = second compound 0.00949 µM, first compound 0.00949 µM
[8] = second compound 0.00949 µM, first compound 0.03 µM
[9] = second compound 0.00949 µM, first compound 0.0949 µM
[10] = second compound 0.00949 µM, first compound 0.3 µM
[11] = second compound 0.00949 µM, first compound 0.949 µM
[12] = second compound 0.00949 µM, first compound 3 µM
[13] = second compound 0.03 µM, first compound 0.00949 µM
[14] = second compound 0.03 µM, first compound 0.03 µM
[15] = second compound 0.03 µM, first compound 0.0949 µM
[16] = second compound 0.03 µM, first compound 0.3 µM
[17] = second compound 0.03 µM, first compound 0.949 µM
[18] = second compound 0.03 µM, first compound 3 µM
[19] = second compound 0.0949 µM, first compound 0.00949 µM
[20] = second compound 0.0949 µM, first compound 0.03 µM
[21] = second compound 0.0949 µM, first compound 0.0949 µM
[22] = second compound 0.0949 µM, first compound 0.3 µM
[23] = second compound 0.0949 µM, first compound 0.949 µM
[24] = second compound 0.0949 µM, first compound 3 µM
[25] = second compound 0.3 µM, first compound 0.00949 µM
[26] = second compound 0.3 µM, first compound 0.03 µM
[27] = second compound 0.3 µM, first compound 0.0949 µM
[28] = second compound 0.3 µM, first compound 0.3 µM
[29] = second compound 0.3 µM, first compound 0.949 µM
[30] = second compound 0.3 µM, first compound 3 µM
[31] = second compound 30 pM, first compound 0.0316 µM
[32] = second compound 30 pM, first compound 0.1 µM
[33] = second compound 30 pM, first compound 0.316 µM
[34] = second compound 30 pM, first compound 1 µM
[35] = second compound 30 pM, first compound 3.16 µM
[36] = second compound 30 pM, first compound 10 µM
[37] = second compound 94.9 pM, first compound 0.0316 µM
[38] = second compound 94.9 pM, first compound 0.1 µM
[39] = second compound 94.9 pM, first compound 0.316 µM
[40] = second compound 94.9 pM, first compound 1 µM
[41] = second compound 94.9 pM, first compound 3.16 µM
[42] = second compound 94.9 pM, first compound 10 µM
[43] = second compound 0.0003 µM, first compound 0.0316 µM
[44] = second compound 0.0003 µM, first compound 0.1 µM
[45] = second compound 0.0003 µM, first compound 0.316 µM
[46] = second compound 0.0003 µM, first compound 1 µM
[47] = second compound 0.0003 µM, first compound 3.16 µM
[48] = second compound 0.0003 µM, first compound 10 µM
[49] = second compound 0.000949 µM, first compound 0.0316 µM
[50] = second compound 0.000949 µM, first compound 0.1 µM
[51] = second compound 0.000949 µM, first compound 0.316 µM
[52] = second compound 0.000949 µM, first compound 1 µM
[53] = second compound 0.000949 µM, first compound 3.16 µM
[54] = second compound 0.000949 µM, first compound 10 µM
[55] = second compound 0.003 µM, first compound 0.0316 µM
[56] = second compound 0.003 µM, first compound 0.1 µM
[57] = second compound 0.003 µM, first compound 0.316 µM
[58] = second compound 0.003 µM, first compound 1 µM
[59] = second compound 0.003 µM, first compound 3.16 µM
[60] = second compound 0.003 µM, first compound 10 µM

Cn1ncnc1[C@H]1c2n[nH]c(=O)c3cc(F)cc(c23)N[C@@H]1c1ccc(F)cc1 + CC[C@@]1(O)C(=O)OCc2c1cc1n(c2=O)Cc2cc3c(CN(C)C)c(O)ccc3nc2-1
IC50 (second compound 0.003 µM): > 3 µM | IC50 (second compound 0.00949 µM): > 3 µM | IC50 (second compound 0.03 µM): > 3 µM | IC50 (second compound 0.0949 µM): 1.63 µM | IC50 (second compound 0.3 µM): 0.00964 µM | viability, T/C [1]: 84.3% | viability, T/C [2]: 87.1% | viability, T/C [3]: 89.6% | viability, T/C [4]: 71.9% | viability, T/C [5]: 79.6% | viability, T/C [6]: 68.6% | viability, T/C [7]: 85.1% | viability, T/C [8]: 78.2% | viability, T/C [9]: 80.6% | viability, T/C [10]: 73.7% | viability, T/C [11]: 69% | viability, T/C [12]: 70.7% | viability, T/C [13]: 76.6% | viability, T/C [14]: 72.5% | viability, T/C [15]: 78.4% | viability, T/C [16]: 70.2% | viability, T/C [17]: 63.7% | viability, T/C [18]: 65% | viability, T/C [19]: 67.4% | viability, T/C [20]: 56.3% | viability, T/C [21]: 59.4% | viability, T/C [22]: 51.5% | viability, T/C [23]: 51.2% | viability, T/C [24]: 50.2% | viability, T/C [25]: 50.8% | viability, T/C [26]: 46.2% | viability, T/C [27]: 49.2% | viability, T/C [28]: 49.9% | viability, T/C [29]: 47% | viability, T/C [30]: 44.1%

CC(C)n1c(=O)n(C)c2cnc3cc(F)c(-c4ccc(OCCCN5CCCCC5)nc4)cc3c21 + COc1cc2c(cc1O)CCNC21CSC2c3c(OC(C)=O)c(C)c4c(c3C(COC1=O)N1C(O)C3Cc5cc(C)c(OC)c(O)c5C(C21)N3C)OCO4
IC50 (second compound 30 pM): > 10 µM | IC50 (second compound 94.9 pM): > 10 µM | IC50 (second compound 0.0003 µM): > 10 µM | IC50 (second compound 0.000949 µM): 0.276 µM | IC50 (second compound 0.003 µM): < 0.0316 µM | viability, T/C [31]: 74.8% | viability, T/C [32]: 73.8% | viability, T/C [33]: 74.4% | viability, T/C [34]: 62.8% | viability, T/C [35]: 64.2% | viability, T/C [36]: 54.7% | viability, T/C [37]: 77.3% | viability, T/C [38]: 64.4% | viability, T/C [39]: 85.3% | viability, T/C [40]: 69% | viability, T/C [41]: 61.4% | viability, T/C [42]: 62.5% | viability, T/C [43]: 58.5% | viability, T/C [44]: 59.9% | viability, T/C [45]: 58.3% | viability, T/C [46]: 72.1% | viability, T/C [47]: 68.5% | viability, T/C [48]: 60% | viability, T/C [49]: 63.8% | viability, T/C [50]: 69.2% | viability, T/C [51]: 45.3% | viability, T/C [52]: 42.2% | viability, T/C [53]: 46.6% | viability, T/C [54]: 57.1% | viability, T/C [55]: 5.32% | viability, T/C [56]: 5.15% | viability, T/C [57]: 3.05% | viability, T/C [58]: 3.74% | viability, T/C [59]: 6.35% | viability, T/C [60]: 6.1%

CC1COCCN1c1cc(-c2ccnn2C)c2ccnc(-c3ccn[nH]3)c2n1 (stereo not given) + COc1cc2c(cc1O)CCNC21CSC2c3c(OC(C)=O)c(C)c4c(c3C(COC1=O)N1C(O)C3Cc5cc(C)c(OC)c(O)c5C(C21)N3C)OCO4
IC50 (second compound 30 pM): < 0.0316 µM | IC50 (second compound 94.9 pM): < 0.0316 µM | IC50 (second compound 0.0003 µM): < 0.0316 µM | IC50 (second compound 0.000949 µM): < 0.0316 µM | IC50 (second compound 0.003 µM): < 0.0316 µM | viability, T/C [31]: 50.9% | viability, T/C [32]: 34.8% | viability, T/C [33]: 28.1% | viability, T/C [34]: 29.2% | viability, T/C [35]: 31% | viability, T/C [36]: 33% | viability, T/C [37]: 42.3% | viability, T/C [38]: 29.3% | viability, T/C [39]: 27.5% | viability, T/C [40]: 25.9% | viability, T/C [41]: 29.2% | viability, T/C [42]: 32.3% | viability, T/C [43]: 28% | viability, T/C [44]: 21.1% | viability, T/C [45]: 21% | viability, T/C [46]: 22.7% | viability, T/C [47]: 24.3% | viability, T/C [48]: 26.8% | viability, T/C [49]: 19.4% | viability, T/C [50]: 15% | viability, T/C [51]: 17% | viability, T/C [52]: 19.7% | viability, T/C [53]: 18.8% | viability, T/C [54]: 18% | viability, T/C [55]: 3.51% | viability, T/C [56]: 3.16% | viability, T/C [57]: 3.09% | viability, T/C [58]: 2.33% | viability, T/C [59]: 2.23% | viability, T/C [60]: 0.78%

CNCc1ccc(-c2cc(-c3nc(-c4ccc(S(=O)(=O)C(C)C)cc4)cnc3N)on2)cc1 + CC[C@@]1(O)C(=O)OCc2c1cc1n(c2=O)Cc2cc3c(CN(C)C)c(O)ccc3nc2-1
IC50 (second compound 0.003 µM): > 3 µM | IC50 (second compound 0.00949 µM): > 3 µM | IC50 (second compound 0.03 µM): > 3 µM | IC50 (second compound 0.0949 µM): > 3 µM | IC50 (second compound 0.3 µM): 1.47 µM | viability, T/C [1]: 79.2% | viability, T/C [2]: 93.3% | viability, T/C [3]: 96% | viability, T/C [4]: 79.7% | viability, T/C [5]: 78% | viability, T/C [6]: 85.6% | viability, T/C [7]: 95.3% | viability, T/C [8]: 87.9% | viability, T/C [9]: 83.7% | viability, T/C [10]: 75.4% | viability, T/C [11]: 81.3% | viability, T/C [12]: 85.7% | viability, T/C [13]: 88.4% | viability, T/C [14]: 74.7% | viability, T/C [15]: 85.5% | viability, T/C [16]: 69.1% | viability, T/C [17]: 86% | viability, T/C [18]: 86.6% | viability, T/C [19]: 69.3% | viability, T/C [20]: 66% | viability, T/C [21]: 61.3% | viability, T/C [22]: 74.2% | viability, T/C [23]: 59.7% | viability, T/C [24]: 69.1% | viability, T/C [25]: 55.2% | viability, T/C [26]: 56.4% | viability, T/C [27]: 59.1% | viability, T/C [28]: 54.7% | viability, T/C [29]: 51.7% | viability, T/C [30]: 46.2%
